Source: patent publication US9428504B2, “7-hydroxy-spiropipiperidine indolinyl antagonists of P2Y1 receptor” (BRISTOL-MYERS SQUIBB COMPANY, priority 2012, dated 2016)
Where a name gives a salt, the structure may show the parent alone.

How the values were obtained:
[1] = target: cloned human P2Y1 receptors (Homo sapiens (Human), UniProt P47900); test: Binding Assay B: Scintillation Proximity Assay (SPA) for P2Y1 binding; details: SPA, [33P] 2MeS-ADP displacement; read-out: P2Y1 Ki (nM) using binding assay B
Outline: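 Scintillation proximity readout of 0.3 nM [^33P] tracer displacement from receptor membranes (~15 fmol receptor, 1.7 μg protein). Binding ran 1 h at room temperature to completion; plates were then centrifuged and aqueous phase aspirated before counting.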

[2] = system: human platelet rich plasma (PRP); test: ADP induced platelet aggregation assay; details: Homo sapiens, Platelet, read-out: PA IC50 (μM) @ 10 μM ADP, platelet aggregation induced by 10 μM ADP, human PRP

Sequence of cloned human P2Y1 receptors (P47900 whole entry): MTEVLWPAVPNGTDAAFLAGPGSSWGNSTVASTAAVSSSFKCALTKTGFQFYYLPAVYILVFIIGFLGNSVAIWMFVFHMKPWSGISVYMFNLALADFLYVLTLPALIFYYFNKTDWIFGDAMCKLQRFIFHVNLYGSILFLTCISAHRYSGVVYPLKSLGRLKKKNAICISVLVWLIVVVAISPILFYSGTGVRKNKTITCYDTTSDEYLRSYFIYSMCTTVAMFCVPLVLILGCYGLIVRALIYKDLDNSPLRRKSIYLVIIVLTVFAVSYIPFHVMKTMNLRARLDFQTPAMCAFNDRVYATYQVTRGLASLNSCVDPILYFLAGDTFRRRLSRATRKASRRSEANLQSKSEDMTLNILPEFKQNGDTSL

Compound | Ki [1] | IC50 [2]
CC(C)N1CCC2(CC1)CN(c1ccccc1NC(=O)Nc1ccc(OC(F)(F)F)cc1)c1c(O)ccc(C(F)(F)F)c12 [Example 107, 1-(2-(7-Hydroxy-1′-isopropyl-4-(trifluoromethyl)spiro [indoline-3,4′-piperidine]-1-yl)phenyl)-3-(4-(trifluoromethoxy)phenyl) urea] | 14.4 nM | 0.6 µM
CC(C)(C)CN1CCC2(CC1)CN(c1ccccc1NC(=O)Nc1nc3ccc(Cl)nc3s1)c1c(O)ccc(-c3nc4cc(F)ccc4s3)c12 [Example 126, 1-(5-Chlorothiazolo[5,4-b]pyridin-2-yl)-3-(2-(4-(5-fluorobenzo[d]thiazol-2-yl)-7-hydroxy-1′-neopentylspiro[indoline-3,4′-piperidin]-1-yl)phenyl)urea] | 13.1 nM | 0.4 µM
COC(=O)c1ccc2nc(NC(=O)Nc3ccccc3N3CC4(CCN(CC(C)(C)C)CC4)c4c(Cl)ccc(O)c43)sc2c1 [Example 41, Methyl 2-(3-(2-(4-Chloro-7-hydroxy-1′-neopentylspiro[indoline-3,4′-piperidine]-1-yl)phenyl)ureido)benzo [d]thiazole-6-carboxylate] | 7.2 nM | 0.7 µM
COc1ccc2nc(NC(=O)Nc3ccccc3N3CC4(CCN(CC(C)(C)C)CC4)c4c(Cl)ccc(O)c43)sc2n1 [Example 169, 1-(2-(4-Chloro-7-hydroxy-1′-neopentylspiro[indoline-3,4′-piperidine]-1-yl)phenyl)-3-(5-methoxythiazolo[5,4-b]pyridin-2-yl)urea] | 11.5 nM | 0.2 µM
COc1ccc2nc(NC(=O)Nc3ccccc3N3CC4(CCN(CC(C)(C)C)CC4)c4c(F)ccc(O)c43)sc2n1 [Example 173, 1-(2-(4-Fluoro-7-hydroxy-1′-neopentylspiro[indoline-3,4′-piperidine]-1-yl)phenyl)-3-(5-methoxythiazolo[5,4-b]pyridin-2-yl)urea] | 3.8 nM | 0.3 µM
CC(C)(C)CN1CCC2(CC1)CN(c1ccccc1NC(=O)Nc1nc3c(s1)CN(C(=O)C(F)(F)F)CC3)c1c(O)ccc(Cl)c12 [Example 72, 1-(2-(4-Chloro-7-hydroxy-1′-neopentylspiro[indoline-3,4′-piperidine]-1-yl)phenyl)-3-(5-(2,2,2-trifluoroacetyl)-4,5,6,7-tetrahydrothiazolo[5.4-c]pyridin-2-yl)urea] | 22.4 nM | 0.2 µM
CC(C)(C)CN1CCC2(CC1)CN(c1ccccc1NC(=O)Nc1ccc(OC(F)(F)F)cc1)c1c(O)cc(F)c(-c3ccc(Cl)cc3)c12 [Example 157, 1-(2-(4-(4-Chlorophenyl)-5-fluoro-7-hydroxy-1′-neopentylspiro[indoline-3,4′-piperidin]-1-yl)phenyl)-3-(4-(trifluoromethoxy)phenyl)urea] | 12.3 nM | 0.2 µM
CC(C)(C)CN1CCC2(CC1)CN(c1ccccc1NC(=O)Nc1nc3ccc(F)cc3s1)c1c(O)cc(F)c(F)c12 [Example 95, 1-(2-(4,5-Difluoro-7-hydroxy-1′-neopentylspiro [indoline-3,4′-piperidine]-1-yl)phenyl)-3-(6-fluorobenzo[d]thiazol-2-yl)urea] | 14.7 nM | 0.5 µM
CC(C)(C)CN1CCC2(CC1)CN(c1ccccc1NC(=O)Nc1nc3ccc(Cl)nc3s1)c1c(O)ccc(C(F)(F)F)c12 [Example 175, 1-(5-Chlorothiazolo[5,4-b]pyridin-2-yl)-3-(2-(7-hydroxy-1′-neopentyl-4-(trifluoromethyl)spiro[indoline-3,4′-piperidine]-1-yl)phenyl)urea] | 13.4 nM | 0.5 µM
CC(C)(C)CN1CCC2(CC1)CN(c1ccccc1NC(=O)Nc1nc3ccc(Cl)cc3s1)c1c(O)c(F)cc(Cl)c12 [Example 98, 1-(2-(4-Chloro-6-fluoro-7-hydroxy-1′-neopentylspiro [indoline-3,4′-piperidine]-1-yl)phenyl)-3-(6-chlorobenzo [d]thiazol-2-yl)urea] | 12.8 nM | 0.9 µM
COc1ccc2nc(NC(=O)Nc3ccccc3N3CC4(CCN(CC(C)(C)C)CC4)c4c(Cl)ccc(O)c43)sc2c1 [Example 47, 1-(2-(4-Chloro-7-hydroxy-1′-neopentylspiro[indoline-3,4′-piperidine]-1-yl)phenyl)-3-(6-methoxybenzo[d]thiazol-2-yl)urea, TFA] | 9.4 nM | 0.3 µM
CC(C)(C)CN1CCC2(CC1)CN(c1ccccc1NC(=O)Nc1csc(Cl)n1)c1c(O)ccc(-c3nc4ccc(Cl)cc4s3)c12 [Example 113, 1-(2-(4-(6-Chlorobenzo[d]thiazol-2-yl)-7-hydroxy-1′-neopentylspiro[indoline-3,4′-piperidin]-1-yl)phenyl)-3-(2-chlorothiazol-4-yl)urea] | 7.1 nM | 0.4 µM
CC(C)(C)CN1CCC2(CC1)CN(c1ccccc1NC(=O)Nc1ccc(OC(F)(F)F)cc1)c1c2ccc(F)c1O [Example 14, 1-(2-(6-Fluoro-7-hydroxy-1′-neopentylspiro[indoline-3,4′-piperidine]-1-yl)phenyl)-3-(4-(trifluoromethoxy)phenyl)urea] | 12.8 nM | 2.1 µM
CC(C)(C)CN1CCC2(CC1)CN(c1ccccc1NC(=O)Nc1ccc(OC(F)F)cc1)c1c(O)ccc(C(F)(F)F)c12 [Example 17, 1-(4-(Difluoromethoxy)phenyl)-3-(2-(7-hydroxy-1′-neopentyl-4-(trifluoromethyl)spiro[indoline-3,4′-piperidine]-1-yl)phenyl)urea] | 9 nM | 0.4 µM
CC(C)(C)CN1CCC2(CC1)CN(c1ncccc1NC(=O)Nc1nc3ccc(F)cc3s1)c1c(O)ccc(Cl)c12 [Example 66, 1-(2-(4-Chloro-7-hydroxy-1′-neopentylspiro[indoline-3,4′-piperidine]-1-yl)pyridin-3-yl)-3-(6-fluorobenzo[d]thiazol-2-yl)urea] | 25.8 nM | 1.2 µM
CC(C)(C)CN1CCC2(CC1)CN(c1ccccc1NC(=O)Nc1csc(Cl)n1)c1c(O)ccc(-c3nc4c(Cl)cccc4s3)c12 [Example 118, 1-(2-(4-(4-Chlorobenzo[d]thiazol-2-yl)-7-hydroxy-1′-neopentylspiro[indoline-3,4′-piperidin]-1-yl)phenyl)-3-(2-chlorothiazol-4-yl)urea] | 15.5 nM | 0.3 µM
CC(C)(C)CN1CCC2(CC1)CN(c1ccccc1NC(=O)Nc1nc3ccc(F)cc3s1)c1c(O)c(F)cc(Cl)c12 [Example 100, 1-(2-(4-Chloro-6-fluoro-7-hydroxy-1′-neopentylspiro [indoline-3,4′-piperidine]-1-yl)phenyl)-3-(6-fluorobenzo[d]thiazol-2-yl)urea] | 7.9 nM | 0.2 µM
CC(C)(C)CN1CCC2(CC1)CN(c1ccccc1NC(=O)Nc1ccc(C(C)(C)C)cc1)c1c(O)cccc12 [Example 5, 1-(4-tert-Butylphenyl)-3-(2-(7-hydroxy-1′-neopentylspiro[indoline-3,4′-piperidine]-1-yl)phenyl)urea] | 8.3 nM | 0.4 µM
CC(C)(C)CN1CCC2(CC1)CN(c1ccccc1NC(=O)Nc1nc3ccc(Cl)nc3s1)c1c(O)cc(F)c(-c3ccc(Cl)cc3)c12 [Example 164, 1-(2-(4-(4-Chlorophenyl)-5-fluoro-7-hydroxy-1′-neopentylspiro[indoline-3,4′-piperidin]-1-yl)phenyl)-3-(5-chlorothiazolo[5,4-b]pyridin-2-yl)urea] | 24.9 nM | 0.6 µM
COC(=O)c1ccc(O)c2c1C1(CCN(CC(C)(C)C)CC1)CN2c1ccccc1NC(=O)Nc1nc2ccc(F)cc2s1 [Example 77, Methyl 1-(2-(3-(6-fluorobenzo[d]thiazol-2-yl)ureido)phenyl)-7-hydroxy-1′-neopentylspiro[indoline-3,4′-piperidine]-4-carboxylate] | 8.7 nM | 0.3 µM
CC(C)(C)CN1CCC2(CC1)CN(c1ccccc1NC(=O)Nc1ccc(OC(F)(F)F)cc1)c1c(O)ccc(C(F)(F)F)c12 [Example 10, 1-(2-(7-Hydroxy-1′-neopentyl-4-(trifluoromethyl)spiro[indoline-3,4′-piperidine]-1-yl)phenyl)-3-(4-(trifluoromethoxy)phenyl)urea] | 4.5 nM | 0.1 µM
CC(C)c1nc(NC(=O)Nc2ccccc2N2CC3(CCN(CC(C)(C)C)CC3)c3c(Cl)ccc(O)c32)cs1 [Example 62, 1-(2-(4-Chloro-7-hydroxy-1′-neopentylspiro[indoline-3,4′-piperidine]-1-yl)phenyl)-3-(2-isopropylthiazol-4-yl)urea] | 13 nM | 0.8 µM
CC(C)(C)CN1CCC2(CC1)CN(c1ccccc1NC(=O)Nc1nc3ccc(F)nc3s1)c1c(O)ccc(Cl)c12 [Example 170] | 6.5 nM | 0.5 µM
CC(C)(C)CN1CCC2(CC1)CN(c1ccccc1NC(=O)Nc1nc3ccc(F)cc3s1)c1c(O)cc(F)c(Cl)c12 [Example 93, 1-(2-(4-Chloro-5-fluoro-7-hydroxy-1′-neopentylspiro [indoline-3,4′-piperidine]-1-yl)phenyl)-3-(6-fluorobenzo[d]thiazol-2-yl)urea] | 13.5 nM | 0.5 µM
CC(C)(C)CN1CCC2(CC1)CN(c1ncccc1NC(=O)Nc1ccc(OC(F)(F)F)cc1)c1c(O)ccc(C(F)(F)F)c12 [Example 12, 1-(2-(7-Hydroxy-1′-neopentyl-4-(trifluoromethyl)spiro[indoline-3,4′-piperidine]-1-yl)pyridin-3-yl)-3-(4-(trifluoromethoxy)phenyl)urea] | 5.6 nM | 1.4 µM
CC(C)(C)CN1CCC2(CC1)CN(c1ccccc1NC(=O)Nc1nc3c(s1)CN(CC(F)(F)F)CC3)c1c(O)ccc(Cl)c12 [Example 71, 1-(2-(4-Chloro-7-hydroxy-1′-neopentylspiro[indoline-3,4′-piperidine]-1-yl)phenyl)-3-(5-(2,2,2-trifluoroethyl)-4,5,6,7-tetrahydrothiazolo[5,4-c]pyridin-2-yl)urea] | 11.1 nM | 0.3 µM
